Laboratory results reported in US8648091B2, “Dihydroquinolinones as ectoparasiticides” (Novartis AG, priority 2007, dated 2014).

Legend:
[1] = tested on: Ctenocephalides felis (cat flea); experiment: Activity in vitro against Ctenocephalides felis (cat flea), artificial feeding system; details: fleas fed on treated blood for 24 hours, dead fleas
Description: 1. Activity In Vitro Against Ctenocephalides felis (Cat Flea). A mixed adult population of fleas is placed in a suitably formatted 96-well plate allowing fleas to access and feed on treated blood via an artificial feeding system. Each compound is tested by serial dilution in order to determine its minimal effective dose (MED). Fleas are fed on treated blood for 24 hours, after which the compound's effect is recorded. Insecticidal activity is determined on the basis of the number of dead fleas recovered from the feeding system.

[2] = tested on: Rhipicephalus sanguineus nymphs; experiment: In-vivo test against Rhipicephalus sanguineus nymphs on Mongolian gerbils; parameters: species or system Mongolian gerbils (Meriones unguiculatus); details: spray (or spot-on) application, tick number reduction vs placebo, Abbot's formula
Description: 4. In-Vivo Test Against Rhipicephalus sanguineus Nymphs on Mongolian Gerbils (Meriones unguiculatus) On day 0, gerbils are treated with the test compound at a given dose by spray (or spot-on) application. On day +1 (+2), the animals are infested with nymphs of Rhipicephalus. sanguineus. Ticks are left on the animals until full repletion. Seven days after infestation nymphs dropped off fully engorged are collected and counted. They are kept until molting to also evaluate growth regulating activity of the test compound. Efficacy in killing (and growth regulating) is expressed as a tick number (and molted tick number) reduction in comparison with a placebo treated group, using the Abbot's formula.

Amblyomma variegatum = experiment: Activity in vitro against ticks, microplate pre-coated with test compound; details: at 32 ppm; percentage of dead ticks compared to untreated controls
Description: (§1) 2. Activity In Vitro Against Ticks 5-10 ticks of different species (i.e. Rhipicephalus sanguineus, Dermacentor spp., etc.) are distributed into a microplate pre-coated with test compound. Each compound is tested by serial dilution in order to determine its Minimal Effective Dose (MED). The microplates are then incubated at 28° C. and 80% humidity until evaluation. At different time points, ticks are excited by carbon dioxide flush and/or heat. […] If the ticks fail to respond to the stimulation, they are considered dead and the compound is scored as active at the tested concentration. Activity is calculated as a percentage of dead ticks compared to untreated controls.

Dermacentor variabilis = experiment: as above; details: at 10 ppm; percentage of dead ticks compared to untreated controls
Description: as §1

Rhipicephalus sanguineus [3] = experiment: as above; details: at 10 ppm; percentage of dead ticks compared to untreated controls
Description: as §1

Dermanyssus gallinae = experiment: Activity in vitro against Dermanyssus gallinae; details: at 63 ppm; 10 minutes contact, incubated 5 days
Description: 3. Activity In Vitro Against Dermanyssus gallinae A clean female mite population is used to seed a suitably formatted 96-well plate containing the test substances to be evaluated for antiparasitic activity. Each compound is tested by serial dilution in order to determine its Minimal Effective Dose (MED). Mites are left in contact with the test compound for 10 minutes and are then incubated at 25° C. and 60% relative humidity (RH) for 5 days, during which the test compound's effect is monitored. Acaricidal activity is confirmed if mites are dead without having laid eggs. Egg-laying and ensuing mite development are also recorded to identify possible growth-regulating activity.

Rhipicephalus sanguineus [4] = experiment: In-vivo test against ticks (Rhipicephalus sanguineus) on dogs; parameters: species or system Dogs of the beagle breed; details: for six weeks; 25 mg/kg spot-on (15% solution in Transcutol); weekly reinfestation; vs placebo, Abbot's formula
Description: (§2) 5. In-Vivo Test Against Ticks (Rhipicephalus sanguineus) on Dogs Dogs of the beagle breed are separated into one treatment and one control group (4 dogs per group). On day 0, the dogs are treated with the test compound at a dose of 25 mg/kg (15% solution in Transcutol) by spot-on application (between the shoulder blades). On day +1, the animals are infested with unfed adult ticks (sex ratio 1:1). Evaluation of efficacy is performed at 48 h, and then weekly 48 h after reinfestation with ticks by counting the numbers of dead and live ticks recovered from the animals. Efficacy is expressed as comparison with a placebo treated group using the Abbot's formula. Infestation can be repeated at weekly intervals until efficacy drops.

Ixodes ricinus = experiment: In-vivo test against ticks (Ixodes ricinus) on cats; details: 25 mg/kg spray (1% solution in Polypropylenglycol), vs placebo, Abbot's formula
Description: 6. In-Vivo Test Against Ticks (Ixodes ricinus) on Cats
as §2, with “Cats” for “5. In-Vivo Test Against Ticks (Rhipicephalus sanguineus) on Dogs Dogs of the beagle breed”, “cats” for “dogs”, “(1%” for “(15%”, “Polypropylenglycol)” for “Transcutol)”, “spray application.” for “spot-on application (between the shoulder blades).”

Which mean efficacy ([1]; at 100 ppm) does the source give for `C=C(C)C1CCC(C)(/C=C/c2ccc3c(c2O)C(O)(c2ccc(OC)cc2)C(OC)C(=O)N3)O1` (stereo not drawn) [compound No. 8] here?
The mean efficacy was 90%.

And the mean efficacy ([2]; at 10 ppm)?
The mean efficacy was 60%.

With `COc1ccc(C2(O)c3c(ccc(/C=C/C4(C)CCC(C(C)(C)O)O4)c3O)NC(=O)C2OC)cc1` (stereo not drawn) [compound No. 9] as the compound, how does the mean efficacy ([1]; at 63 ppm) read?
The mean efficacy was 70%.

With `COc1ccc(C2(O)c3c(ccc(/C=C/C4(C)CCC(C)(C)CO4)c3O)NC(=O)C2OC)cc1` (stereo not drawn) [compound No. 11] as the compound, how does the mean efficacy ([1]; at 32 ppm) read?
Its mean efficacy is 95%.

What about the mean efficacy (Amblyomma variegatum) of the same compound?
Its mean efficacy is 90%.

And the mean efficacy (Dermacentor variabilis)?
Its mean efficacy is 100%.

What about the mean efficacy (Rhipicephalus sanguineus [3]) of the same compound?
The mean efficacy was 100%.

And the mean efficacy (Dermanyssus gallinae)?
The mean efficacy was 90%.

What about the mean efficacy ([2]; at 3.2 ppm) of the same compound?
Its mean efficacy is 95%.

What about the activity (Rhipicephalus sanguineus [4]) of the same compound?
The activity was “above 90%”.

And the activity (Ixodes ricinus; after one week)?
The activity was 95%.

And the activity (Ixodes ricinus; after two weeks)?
Its activity is 70%.
